Experimental data published in patent US20050009834A1, “Azole compounds, process for preparation of the same and use thereof” (priority 2001, published 2005).

Legend:
Tetranychus urticae = experiment: acaricidal effect for Tetranychus urticae (spray on string bean); type: in vivo; settings: 500 ppm, female imagoes, survivors counted on second and seventh day after treatment, 25° C.
Description: 2) acaricidal effect for Tetranychus urticae Ten female imagoes Tetranychus urticae were set free on a string bean wherein first leaves had just developed. On the following day, the pesticidal solution, which was prepared by dissolving 5 mg of test compound (represented by the compound Nos. in the above Examples) in 0.5 ml of acetone containing Tween 20 (trade name) and then diluting it to the prescribed concentration (500 ppm) with Dain water diluted 5000-fold, was sprayed with spray gun in the amounts wherein the pesticidal solution dripped. The string bean was left in a temperature-controlled breeding room (25° C.). On the second and seventh day after treatment, the number of surviving Tetranychus urticae was examined. The rate of decrease was calculated by the following formula, and the result was shown in table 40. rate of decrease (%)=(1−(S2/(5.59×(10+(10+S1)/2+S1))))×100 • S1; the number of surviving imagoes on the second day after S2; the number of surviving imagoes on the seventh day after […]

Plutella xylostella = experiment: insecticidal effect for Plutella xylostella (cabbage leaf dip); type: in vivo; settings: 100 ppm, second-instar larvae, fifth day after, 24° C.
Description: 1) insecticidal effect for Plutella xylostella One 7 to 8-leave stage foliage leaf of cabbage was cut off and dipped in a pesticidal solution for a few seconds, which was prepared by dissolving 5 mg of test compound (represented by the compound Nos. in the above Examples) in 0.5 ml of acetone containing Tween 20 (trade name) and then diluting it to the prescribed concentration (100 ppm) with Dain water diluted 5000-fold. After drying the pesticidal solution, the leaf was put into an ice cream cup (180 ml), and ten second-instar larvae of Plutella xylostella were set free. The cup was left in a temperature-controlled breeding room (24° C.). On the fifth day after, the number of surviving Plutella xylostella was examined. The rate of dead pests was calculated by the following formula, and the result was shown in table 39. rate of dead pests (%)=(number of dead pests/number of test pests)×100

Structure (SMILES) | Rate of decrease (%) (Tetranychus urticae) | Rate of dead pests (%) (Plutella xylostella) | melting point [°C]
Cc1nc(-c2c(F)cccc2Cl)nn1-c1ccc(C(C)Oc2ncc(C(F)(F)F)cc2Cl)cc1 (racemic) [T-267] | 99 | 100 | 
Cc1nc(-c2ccccc2F)cn1-c1ccc(COc2ncc(C(F)(F)F)cc2Cl)cc1 [I-63, 1-[4-[3-chloro-5-(trifluoromethyl)pyridin-2-yloxymethyl]phenyl]-4-(2-fluorophenyl)-2-methylimidazole] |  |  | 109
Fc1ccccc1-c1cn(-c2ccc(COc3ncc(C(F)(F)F)cc3Cl)cc2)c(Cl)n1 [I-77] | 95 |  | 
O=Cc1nc(-c2ccccc2F)cn1-c1ccc(COc2ncc(C(F)(F)F)cc2Cl)cc1 [I-82] | 99 |  | 
Fc1cccc(Cl)c1-c1cc(Cl)n(-c2ccc(COc3ncc(C(F)(F)F)cc3Cl)cc2)n1 [P-21, 5-chloro-3-(2-chloro-6-fluorophenyl)-1-[4-(3-chloro-5-trifluoromethylpyridin-2-yloxymethyl)phenyl]pyrazole] | 99 | 100 | 
Cc1nc(-c2c(F)cccc2Cl)nn1-c1ccc(COc2ccc(Cl)cc2)cc1 [T-3] | 98 | 100 | 
Cc1nc(-c2c(F)cccc2Cl)nn1-c1ccc(COc2ccc(C(F)(F)F)cc2)cc1 [T-5] | 96 | 95 | 
Cc1nc(-c2c(F)cccc2Cl)nn1-c1ccc(COc2ccc(Cl)cc2Cl)cc1 [T-9] | 99 | 100 | 
Cc1nc(-c2c(F)cccc2Cl)nn1-c1ccc(COc2ccc(C(F)(F)F)cc2Cl)cc1 [T-12] | 98 | 100 | 
Cc1nc(-c2c(F)cccc2Cl)nn1-c1ccc(COc2ccc(C(F)(F)F)cn2)cc1 [T-17] |  | 100 | 
Cc1nc(-c2c(F)cccc2Cl)nn1-c1ccc(COc2ccc(Cl)cn2)cc1 [T-18] | 97 | 100 | 
Cc1nc(-c2c(F)cccc2Cl)nn1-c1ccc(COc2ncc(Cl)cc2Cl)cc1 [T-20] | 98 | 100 | 
Cc1nc(-c2c(F)cccc2Cl)nn1-c1ccc(COc2ncc(C(F)(F)F)cc2Cl)cc1 [T-21, 3-(2-chloro-6-fluorophenyl)-1-[4-(3-chloro-5-trifluoromethylpyridin-2-yloxymethyl)phenyl]-5-methyl-1H-1,2,4-triazole] | 100 | 100 | 
Cc1nc(-c2c(F)cccc2Cl)nn1-c1ccc(COc2ncc(Cl)cn2)cc1 [T-24] | 97 |  | 
Cc1nc(-c2c(F)cccc2Cl)nn1-c1ccc(COc2nnc(C(F)(F)F)s2)cc1 [T-25] | 99 |  | 
Cc1nc(-c2c(F)cccc2Cl)nn1-c1ccc(COc2ncc(C(F)(F)F)cc2Cl)cn1 [T-28] | 98 | 100 | 
Cc1nc(-c2c(F)cccc2Cl)nn1-c1ccc(COc2ncc(C(F)(F)F)cc2Cl)cc1Cl [T-30] | 99 | 100 | 
Nc1nc(-c2c(F)cccc2Cl)nn1-c1ccc(COc2ncc(C(F)(F)F)cc2Cl)cc1 [T-40] | 97 | 95 | 
Fc1cccc(Cl)c1-c1nc(Cl)n(-c2ccc(COc3ncc(C(F)(F)F)cc3Cl)cc2)n1 [T-43] | 100 | 100 | 
COc1nc(-c2c(F)cccc2Cl)nn1-c1ccc(COc2ncc(C(F)(F)F)cc2Cl)cc1 [T-46] | 99 | 100 | 
Fc1cccc(Cl)c1-c1nc(C(F)(F)F)n(-c2ccc(COc3ncc(C(F)(F)F)cc3Cl)cc2)n1 [T-47] | 100 | 100 | 
CCc1nc(-c2c(F)cccc2Cl)nn1-c1ccc(COc2ncc(C(F)(F)F)cc2Cl)cc1 [T-48] | 99 | 100 | 
N#Cc1nc(-c2c(F)cccc2Cl)nn1-c1ccc(COc2ncc(C(F)(F)F)cc2Cl)cc1 [T-52] | 97 | 100 | 
Fc1cccc(Cl)c1-c1nc(CCl)n(-c2ccc(COc3ncc(C(F)(F)F)cc3Cl)cc2)n1 [T-53] | 99 |  | 
FCc1nc(-c2c(F)cccc2Cl)nn1-c1ccc(COc2ncc(C(F)(F)F)cc2Cl)cc1 [T-54] | 98 |  | 
COCc1nc(-c2c(F)cccc2Cl)nn1-c1ccc(COc2ncc(C(F)(F)F)cc2Cl)cc1 [T-56] | 98 | 100 | 

Structure (SMILES) | Rate of decrease (%) (Tetranychus urticae) | Rate of dead pests (%) (Plutella xylostella) | melting point [°C]
Cc1nc(-c2c(F)cccc2F)nn1-c1ccc(COc2ccc(C(F)(F)F)cn2)cc1 [T-66] |  | 95 | 
Cc1cccc(C)c1-c1nc(C)n(-c2ccc(COc3ncc(C(F)(F)F)cc3Cl)cc2)n1 [T-74] | 97 | 100 | 
FC(F)(F)c1cnc(OCc2ccc(-n3cnc(-c4cc(Cl)nc(Cl)c4)n3)cc2)c(Cl)c1 [T-75] | 99 |  | 
Fc1cccc(F)c1-c1ncn(-c2ccc(COc3ncc(C(F)(F)F)cc3Cl)cc2)n1 [T-76] | 96 |  | 
Fc1cccc(F)c1-c1nc(Cl)n(-c2ccc(COc3ncc(C(F)(F)F)cc3Cl)cc2)n1 [T-78] | 98 | 100 | 
CCc1nc(-c2c(F)cccc2F)nn1-c1ccc(COc2ncc(C(F)(F)F)cc2Cl)cc1 [T-88] | 98 | 95 | 
CC(C)c1nc(-c2c(F)cccc2Cl)nn1-c1ccc(COc2ncc(C(F)(F)F)cc2Cl)cc1 [T-92] | 98 |  | 
Fc1cccc(Cl)c1-c1nc(C2CC2)n(-c2ccc(COc3ncc(C(F)(F)F)cc3Cl)cc2)n1 [T-93] | 97 |  | 
C=Cc1nc(-c2c(F)cccc2Cl)nn1-c1ccc(COc2ncc(C(F)(F)F)cc2Cl)cc1 [T-106] | 97 | 100 | 
O=Cc1nc(-c2c(F)cccc2Cl)nn1-c1ccc(COc2ncc(C(F)(F)F)cc2Cl)cc1 [T-107] | 100 | 100 | 
Fc1cccc(Cl)c1-c1nc(C(F)F)n(-c2ccc(COc3ncc(C(F)(F)F)cc3Cl)cc2)n1 [T-120] | 99 | 100 | 
Cc1nc(-c2cccnc2Cl)nn1-c1ccc(COc2ncc(C(F)(F)F)cc2Cl)cc1 [T-130] | 98 |  | 
Cc1nc(-c2c(Cl)cc(Cl)cc2Cl)nn1-c1ccc(COc2ncc(C(F)(F)F)cc2Cl)cc1 [T-131] | 100 |  | 
C#Cc1nc(-c2c(F)cccc2Cl)nn1-c1ccc(COc2ncc(C(F)(F)F)cc2Cl)cc1 [T-132] | 100 |  | 
Cc1nc(-c2c(F)cccc2C(F)(F)F)nn1-c1ccc(COc2ncc(C(F)(F)F)cc2Cl)cc1 [T-133] | 99 | 95 | 
Cc1nc(-c2c(F)c(F)cc(F)c2F)nn1-c1ccc(COc2ncc(C(F)(F)F)cc2Cl)cc1 [T-134] | 100 |  | 
Cc1nc(-c2c(F)cc(F)cc2F)nn1-c1ccc(COc2ncc(C(F)(F)F)cc2Cl)cc1 [T-135] | 96 |  | 
Cc1nc(-c2ccccc2OC(F)(F)F)nn1-c1ccc(COc2ncc(C(F)(F)F)cc2Cl)cc1 [T-136] | 99 |  | 
Cc1nc(-c2c(F)ccc(Cl)c2F)nn1-c1ccc(COc2ncc(C(F)(F)F)cc2Cl)cc1 [T-137] | 99 |  | 
Cc1nc(-c2c(F)ccc(F)c2Cl)nn1-c1ccc(COc2ncc(C(F)(F)F)cc2Cl)cc1 [T-138] | 99 |  | 
Cc1nc(-c2c(F)cccc2Cl)nn1-c1ccc(COc2ncc(C(F)(F)F)cn2)cc1 [T-139] | 97 |  | 
COc1cccc(OC)c1-c1nc(C)n(-c2ccc(COc3ncc(C(F)(F)F)cc3Cl)cc2)n1 [T-140] | 99 |  | 
COC(=O)c1nc(-c2c(F)cccc2Cl)nn1-c1ccc(COc2ncc(C(F)(F)F)cc2Cl)cc1 [T-143] | 98 |  | 
CC1=CN(Cc2ccc(COc3ncc(C(F)(F)F)cc3Cl)cc2)NC(c2c(F)cccc2Cl)=N1 [T-171, 3-(2-chloro-6-fluorophenyl)-1-[4-(3-chloro-5-trifluoromethyl-2-pyridyloxymethyl)phenylmethyl]-5-methyl-1H-1,2,4-triazine] | 99 |  | 
Cc1nc(-c2c(F)cccc2Cl)nn1Cc1ccc(COc2ncc(C(F)(F)F)cc2Cl)cc1 [T-172] | 98 |  | 
Cc1nc(-c2c(F)cccc2Cl)nn1-c1ccc(Oc2ncc(C(F)(F)F)cc2Cl)cc1 [T-264] | 98 |  | 
